One compound from article PMC11790708, “Clioquinol inhibits angiogenesis by promoting VEGFR2 degradation and synergizes with AKT inhibition to suppress triple-negative breast cancer vascularization” (Angiogenesis, 2025) can be followed below.

In this experiment the target is T1, VEGFR2 (Homo sapiens, UniProt P35968).
T1 construct: gene KDR; recombinant VEGFR2 (amino acids 789 to end)
As to the kind of experiment: cell-free ADP-Glo kinase assay at […] ATP, with ATP competition at […] ATP. The class given is biochemical. In general terms: ADP-Glo first removes unused ATP, then detects ADP through luciferase.

T1 sequence (P35968 789-1356): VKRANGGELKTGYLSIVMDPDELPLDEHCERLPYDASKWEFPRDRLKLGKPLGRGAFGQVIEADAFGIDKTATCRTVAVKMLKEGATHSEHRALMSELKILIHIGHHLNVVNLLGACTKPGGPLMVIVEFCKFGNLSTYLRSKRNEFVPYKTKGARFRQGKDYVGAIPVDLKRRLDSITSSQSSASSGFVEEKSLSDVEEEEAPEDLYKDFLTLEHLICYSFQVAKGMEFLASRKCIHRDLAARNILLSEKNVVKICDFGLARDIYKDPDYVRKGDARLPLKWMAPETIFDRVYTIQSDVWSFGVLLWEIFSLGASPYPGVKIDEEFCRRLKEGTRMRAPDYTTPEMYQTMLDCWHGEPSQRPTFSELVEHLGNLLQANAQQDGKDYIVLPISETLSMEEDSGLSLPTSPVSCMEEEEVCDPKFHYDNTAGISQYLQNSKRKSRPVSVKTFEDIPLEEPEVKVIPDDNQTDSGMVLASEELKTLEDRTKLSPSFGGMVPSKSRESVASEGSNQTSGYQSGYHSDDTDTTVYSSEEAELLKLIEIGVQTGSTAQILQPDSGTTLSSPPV

In the case of `Oc1c(I)cc(Cl)c2cccnc12` [clioquinol], the IC50 came to 34.6 µM. This counts as double-digit micromolar.

In general, IC50 refers to the concentration that gives 50% inhibition. Read a high IC50 as weaker potency in that assay.
